From patent US5322846A, “4-methylthiazole derivatives, their methods of preparation and the pharmaceutical compositions in which they are present” (Institut de Recherches Chimiques et Biologiques Appliquees …, priority 1990, dated 1994)
Like-named read-outs stand apart in the source and are kept apart here.

What was measured:
[1] = Acute toxicity in mice (oral, LD50); details: mouse, in vivo, male mice, single dose, 14-day observation
Experimental: The products were administered orally in a single dose to male mice with an average weight of 22 g. The mortality was recorded after a 14-day observation period.
The results are expressed in the form of the 50% lethal dose (LD50), i.e. the theoretical dose in mg.kg^-1, administered orally, which causes the death of 50% of the animals.
The majority of the molecules have an LD50 of more than 1 g.kg^-1. These are therefore products with a low toxicity after a single administration.

[2] = tested on: lethal effect of norepinephrine; assay: Adrenolytic activity in vivo on the lethal effect of norepinephrine in rats; details: for ED50: Rattus norvegicus, wake male rats, norepinephrine 0.4 mg.kg^-1 intravenous, prior administration of product, read-out: ED50 (dose which protects 50% of the animals); for adrenolytic activity in the whole animals: rats, in words
Experimental: The intravenous injection of norepinephrine (0.4 mg.kg^-1) into wake male rats causes the death of 100% of the animals. The prior administration of a substance which has an alpha-blocking property makes it possible to reduce this toxicity.
The results are expressed in the form of the 50% effective dose (ED50), i.e. the dose in mg.kg^-1 which protects 50% of the animals (Table 5).

[3] = target: T1, postsynaptic alpha-adrenergic receptors (Rattus norvegicus, UniProt P43140); assay: Alpha-blocking activity towards norepinephrine on isolated rat vas deferens; format: biochemical; details: -log of concentration requiring doubled norepinephrine; for Kb: read-out: pA2 (converted)
T1 construct: causes contraction of the isolated vas deferens; from tissue; host or cells: isolated rat vas deferens
T1 sequence (P43140 1-466): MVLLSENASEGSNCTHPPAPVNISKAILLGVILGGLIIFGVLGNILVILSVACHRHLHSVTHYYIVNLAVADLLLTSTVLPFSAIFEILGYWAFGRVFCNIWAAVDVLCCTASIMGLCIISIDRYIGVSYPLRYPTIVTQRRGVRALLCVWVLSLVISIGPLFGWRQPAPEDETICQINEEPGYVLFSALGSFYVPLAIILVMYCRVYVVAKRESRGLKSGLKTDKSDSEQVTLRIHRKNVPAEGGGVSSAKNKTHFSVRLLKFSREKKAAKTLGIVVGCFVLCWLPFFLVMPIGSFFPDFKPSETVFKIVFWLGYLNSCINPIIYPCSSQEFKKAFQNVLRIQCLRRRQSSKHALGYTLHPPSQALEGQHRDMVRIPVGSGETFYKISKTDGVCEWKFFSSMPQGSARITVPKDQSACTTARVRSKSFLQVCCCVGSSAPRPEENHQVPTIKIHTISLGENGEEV
Experimental: Stimulation of the postsynaptic alpha-adrenergic receptors by norepinephrine causes contraction of the isolated vas deferens.
The concentration of product in whose presence the norepinephrine concentration must be doubled in order to obtain the same effect as in the absence of said product is determined. The logarithm of this concentration, with the opposite sign, constitutes the pA2 of the products.
Their alpha-blocking activity is high since it appears for low concentrations of between 10^-6 M and 10^-8 M.

[4] = tested on: hypertension induced by norepinephrine; assay: Inhibitory activity towards hypertension induced by norepinephrine in anesthetized rabbits; format: in vivo; details: Oryctolagus cuniculus; anesthetized male rabbits, intravenous; read-out: ID50 (50% inhibition of norepinephrine-induced hypertension)
Experimental: The blood pressure is measured by catheterization of the left carotid artery of anesthetized male rabbits. An increase in blood pressure is induced by an intravenous injection of norepinephrine. This hypertension can be inhibited by the prior administration of molecules with an alpha-blocking potential.
These are presented in Table 6 in the form of the 50% inhibitory dose (ID50), which is defined as the dose of product which, when administered intravenously, causes a 50% inhibition of the hypertension induced by norepinephrine.

[5] = tested on: femoral blood pressure and heart rate; assay: Cardiovascular activity (blood pressure and heart rate) in anesthetized rats; format: in vivo; details: for Heart rate, maximum effect in % / ED25: I.V., pentobarbital-anesthetized rats; for ED25: Rattus norvegicus, iv, 25% drop in average blood pressure; for hypotensive potential compared with nicardipine: ED25 values 5 min after I.V. injection, in words
Experimental: The cardiovascular effects of three products were studied in rats anesthetized with pentobarbital and placed under artificial respiration. The femoral blood pressure and the heart rate are recorded by means of a GOULD-BRUSH apparatus.
The products are administered intravenously in increasing doses. Three animals are tested per product. The dose which causes a 25% drop in average blood pressure (ED25) was evaluated for each product and compared with nicardipine 1 to 5 min after administration.
The products have dose-dependent hypotensive effects but have little or no effect on the heart rate (Table 7). The most hypotensive in terms of the effective dose is B 1395 (ED25 of 0.004 mg.kg^-1).

[6] = 1 min, 1 minute, read-out: Blood pressure: Hypotension, ED25 at 1 minute
[7] = 5 min, 5 minutes, read-out: Blood pressure: Hypotension, ED25 at 5 minutes

Row | SMILES | LD50 at 336 h [1] [mg/kg] | ED50 [2] [mg/kg] | Kb [3] [nM] | ED50 [4] [mg/kg] | adrenolytic activity in the whole animals [2] | Heart rate, maximum effect in % [5] [%] | ED25 [5, 6] [mg/kg] | ED25 [5, 7] [mg/kg] | hypotensive potential compared with nicardipine [5] | pA2 [3]
1 | Cc1ncsc1OCCN1CCN(c2cccc(C(F)(F)F)c2)CC1 [B 1194, 4-methyl-5-[2-(4-m-trifluoromethylphenylpiperazin-1yl)ethoxy]thiazole] | > 1000 | 200 | 2570 |  |  |  |  |  |  | 
2 | Cc1ncsc1OCCN1CCN(c2ccccc2)CC1 [B 1216, 4-methyl-5-[2-(4-phenylpiperazin-1-yl)ethoxy]thiazole] | > 1000 | 33 | 89.1 | > 3 |  |  |  |  |  | 
3 | COc1ccccc1N1CCN(CCOc2scnc2C)CC1 [B 1223, 4-methyl-5-[2-(4-o-methoxyphenylpiperazin-1-yl)ethoxy]thiazole] | > 1000 | 13 | 269 |  |  |  |  |  |  | 
4 | Cc1ncsc1OCCN1CCN(c2ccc(F)cc2)CC1 [B 1227, 4-methyl-5-[2-(4-p-fluorophenylpiperazin-1-yl)ethoxy]thiazole] | 1000 | 30 | > 1000 |  |  |  |  |  |  | 
5 | CCCOc1ccccc1N1CCN(CCOc2scnc2C)CC1 [B 1242] |  |  |  |  | very active |  |  |  |  | 
6 | CCOc1ccccc1N1CCN(CCOc2scnc2C)CC1 [B 1258, 4-methyl-5-[2-(4-o-ethoxyphenylpiperazin-1-yl)ethoxy]thiazole] | > 1000 | 6.5 | 15.8 | 5.6 | very active | -5.6 | 0.8 | 1 |  | 
7 | Cc1cc(Cl)ccc1N1CCN(CCOc2scnc2C)CC1 [B 1259, 4-methyl-5-[2-[4-(4-chloro-2-methylphenyl)piperazin-1-yl]ethoxy]thiazole] | 630 | 45 | 1350 |  |  |  |  |  |  | 
8 | Cc1ncsc1OCCN1CCN(c2ccccc2F)CC1 [B 1305, 4-methyl-5-[2-(4-o-fluorophenylpiperazin-1-yl)-ethoxy]thiazole] | > 1000 | 35 | 81.3 | 3 |  |  |  |  |  | 
9 | Cc1ccc(Cl)cc1N1CCN(CCOc2scnc2C)CC1 [B 1313, 4-methyl-5-[2-[4-(5-chloro-2-methylphenyl)piperazin-1-yl]ethoxy]thiazole] | 770 | 109 | 81.3 |  |  |  |  |  |  | 
10 | CCOc1cccc(N2CCN(CCOc3scnc3C)CC2)c1 [B 1325, 4-methyl-5-[2-(4-m-ethoxyphenylpiperazin-1-yl)-ethoxy]thiazole] | > 1000 | 49 | 813 |  |  |  |  |  |  | 
11 | CCCOc1ccccc1N1CCN(CCOc2scnc2C)CC1 [B 1342, 4-methyl-5-[2-(4-o-propoxyphenylpiperazin-1-yl)-ethoxy]thiazole] | > 1000 | 4 | 16.2 | 7.3 |  |  |  |  |  | 
12 | Cc1cccc(Cl)c1N1CCN(CCOc2scnc2C)CC1 [B 1366, 4-methyl-5-[2-[4-(6-chloro-2-methylphenyl)piperazin-1-yl]ethoxy]thiazole] | 740 | 100 | > 1000 |  |  |  |  |  |  | 
13 | Cc1ncsc1OCC(O)CN1CCN(c2ccccc2O)CC1 (stereo not drawn) [B 1396, 3-(4-o-hydroxyphenylpiperazin-1-yl)-1-(4-methylthiazolyl-5-oxy)propan-2-ol] | 315 | 0.6 | 316 |  | very active | 0 | 0.008 | 0.06 | on a level with that of nicardipine | 
14 | Cc1cc(Cl)ccc1N1CCN(CC(O)COc2scnc2C)CC1 (stereo not drawn) [B 1406, 3-[4-(4-chloro-2-methylphenyl)piperazin-1-yl]-1-(4-methylthiazolyl-5-oxy)propan-2-ol] | 515 | 8.1 |  |  |  |  |  |  |  | 6.40
15 | Cc1ncsc1OCC(O)CN1CCN(c2ccccc2OC(C)C)CC1 (stereo not drawn) [B 1429, 3-(4-o-isopropoxyphenylpiperazin-1-yl)-1-(4-methylthiazolyl-5-oxy)propan-2-ol] | 428 | 0.5 | 4.57 |  | very active | -5.1 | 0.016 | 0.03 |  | 
16 | Cc1ncsc1OCCN1CCN(c2ccccc2O)CC1 [B 1430, 4-methyl-5-[2-(4-o-hydroxyphenylpiperazin-1-yl)-ethoxy]thiazole] | 305 | 8.3 | 229 |  |  |  |  |  |  | 
17 | Cc1ncsc1OCC(O)CN1CCN(c2ccccc2OCC(C)C)CC1 (stereo not drawn) [B 1431, 3-(4-o-phenylpiperazin-1-yl)-1-(4-methylthiazolyl-5-oxy)propan-2-ol] | 1000 | 0.4 | 7.41 |  | very active | -12 | 0.1 | 0.24 | on a level with that of nicardipine | 
18 | Cc1ncsc1OCC(O)CN1CCN(c2cccc(C(F)(F)F)c2)CC1 (stereo not drawn) [B 1489, 3-(4-m-trifluoromethylphenylpiperazin-1-yl)-1-(4-methylthiazolyl-5-oxy)propan-2-ol] | > 1000 | 59.7 |  |  |  |  |  |  |  | 
19 | COc1ccccc1N1CCN(CC(O)COc2scnc2C)CC1 (stereo not drawn) [B 1510, 3-(4-o-methoxyphenylpiperazin-1-yl)-1-(4-methylthiazolyl-5-oxy)propan-2-ol] | 235 | 0.52 | 21.4 |  | very active | -6 | 0.01 | 0.01 |  | 
20 | CCCCCOc1ccccc1N1CCN(CC(O)COc2scnc2C)CC1 (stereo not drawn) [B 1525, 3-(4-o-pentoxyphenylpiperazin-1-yl)-1-(4-methylthiazolyl-5-oxy)propan-2-ol] | > 1000 | 1.27 | 7.94 |  | very active | -8 | 0.04 | 0.04 |  | 
21 | Cc1ncsc1OCC(O)CN1CCN(c2cccc(Cl)c2)CC1 (stereo not drawn) [B 1548, 3-(4-m-chlorophenylpiperazin-1-yl)-1-(4-methylthiazolyl-5-oxy)propan-2-ol] | > 500 | 15.8 |  |  | very active |  |  |  |  | 
22 | Cc1ncsc1OCC(O)CN1CCN(c2ccccc2OCCC(C)C)CC1 (stereo not drawn) [B 1552, 3-(4-o-isopentoxyphenylpiperazin-1-yl)-1-(4-methylthiazolyl-5-oxy)propan-2-ol] | > 1000 | 1.55 | 22.9 |  | very active | -7.9 | 0.12 | 0.25 | on a level with that of nicardipine | 
23 | Cc1ncsc1OCC(O)CN1CCN(c2ccccc2OCC(C)(C)C)CC1 (stereo not drawn) [B 1562, 3-(4-o-neopentoxyphenylpiperazin-1-yl)-1-(4-methylthiazolyl-5-oxy)propan-2-ol] | > 1000 |  |  |  |  |  |  |  |  | 
24 | COC(=O)C1=C(C)NC(C)=C(C(=O)OCCN(C)Cc2ccccc2)C1c1cccc([N+](=O)[O-])c1 (stereo not drawn) [NICARDIPINE, nicardipine, reference compound] |  |  |  |  |  | 0 | 0.0015 | 0.2 |  | 
